# Reference: ChEMBL document CHEMBL3826919, “The discovery of novel and selective fatty acid binding protein 4 inhibitors by virtual screening and biological evaluation” (Bioorg Med Chem, 2016)
# Experiments:
# [1] = target: T1, Fatty acid-binding protein, adipocyte (Homo sapiens, UniProt P15090); test: Binding affinity to His6-tagged FABP4 (unknown origin) expressed in Escherichia coli BL21(DE3) cells assessed as change in melting temperature at 50 uM after 30 mins by SYPRO orange dye based thermal stability shift assay
# Target sequence in this assay (P15090 2-132 limits assumed): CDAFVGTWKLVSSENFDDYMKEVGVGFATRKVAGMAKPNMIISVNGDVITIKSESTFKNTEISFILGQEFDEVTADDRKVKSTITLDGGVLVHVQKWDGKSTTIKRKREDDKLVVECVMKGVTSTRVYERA
# [2] = target: T2, Fatty acid-binding protein, intestinal (Homo sapiens) (UniProt P12104); test: Displacement of 1,8-ANS from His6-tagged FABP2 (unknown origin) expressed in Escherichia coli BL21(DE3) cells at 25 uM by fluorescence assay relative to control
# T2 sequence (whole entry): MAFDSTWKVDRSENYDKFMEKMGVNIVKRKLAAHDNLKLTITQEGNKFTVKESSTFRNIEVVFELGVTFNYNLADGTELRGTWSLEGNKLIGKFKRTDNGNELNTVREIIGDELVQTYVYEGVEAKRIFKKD
# [3] = target: T3, Fatty acid-binding protein, adipocyte (Mus musculus) (UniProt P04117); test: Inhibition of FABP4 in mouse RAW264.7 cells assessed as inhibition of LPS-induced TNFalpha expression after 24 hrs by qPCR method; format: cell-based
# T3 sequence (whole entry): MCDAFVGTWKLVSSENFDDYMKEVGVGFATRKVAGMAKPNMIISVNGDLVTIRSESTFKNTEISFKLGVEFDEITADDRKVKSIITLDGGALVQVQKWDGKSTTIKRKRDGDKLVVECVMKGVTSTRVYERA
# [4] = target: T4, Fatty acid-binding protein, heart (Homo sapiens, UniProt P05413); settings: 25 uM
# Target sequence in this assay (P05413 2-133 limits assumed): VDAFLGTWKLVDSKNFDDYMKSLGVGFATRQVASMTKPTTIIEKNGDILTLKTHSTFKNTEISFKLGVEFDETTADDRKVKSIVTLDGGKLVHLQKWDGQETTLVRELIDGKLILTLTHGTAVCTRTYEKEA
# Description: Displacement of 1,8-ANS from His6-tagged FABP3 (unknown origin) expressed in Escherichia coli BL21(DE3) cells at 25 uM by fluorescence assay relative to control
# [5] = target: Fatty acid-binding protein, brain (Homo sapiens) (UniProt O15540); test: Displacement of 1,8-ANS from His6-tagged FABP7 (unknown origin) expressed in Escherichia coli BL21(DE3) cells at 25 uM by fluorescence assay relative to control
# [6] = target: T1, Fatty acid-binding protein, adipocyte; test: Direct binding to His6-tagged FABP4 (unknown origin) expressed in Escherichia coli BL21(DE3) cells by isothermal titration calorimetry
# Target sequence in this assay (P15090 whole entry): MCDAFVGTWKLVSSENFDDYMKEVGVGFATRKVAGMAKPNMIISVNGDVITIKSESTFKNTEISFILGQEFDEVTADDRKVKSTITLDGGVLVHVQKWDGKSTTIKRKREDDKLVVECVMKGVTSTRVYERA
# Homo sapiens [7] = species on record: Homo sapiens; test: Displacement of 1,8-ANS from His6-tagged FABP4 (unknown origin) R126A mutant expressed in Escherichia coli BL21(DE3) cells at 25 uM by fluorescence assay relative to control
# [8] = target: T3, Fatty acid-binding protein, adipocyte (Mus musculus); test: Inhibition of FABP4 in mouse RAW264.7 cells assessed as inhibition of LPS-induced TNFalpha production after 24 hrs by ELISA; format: cell-based
# [9] = target: Myelin P2 protein (Homo sapiens) (UniProt P02689); test: Displacement of 1,8-ANS from His6-tagged FABP8 (unknown origin) expressed in Escherichia coli BL21(DE3) cells at 25 uM by fluorescence assay relative to control
# [10] = target: T1, Fatty acid-binding protein, adipocyte; test: Displacement of 1,8-ANS from His6-tagged FABP4 (unknown origin) expressed in Escherichia coli BL21(DE3) cells by fluorescence assay; settings: read-out: Ki(app)
# Target sequence in this assay (P15090 whole entry): as above
# [11] = target: T5, Fatty acid-binding protein 9 (Homo sapiens) (UniProt Q0Z7S8); test: Displacement of 1,8-ANS from His6-tagged FABP9 (unknown origin) expressed in Escherichia coli BL21(DE3) cells at 25 uM by fluorescence assay relative to control
# T5 sequence (whole entry): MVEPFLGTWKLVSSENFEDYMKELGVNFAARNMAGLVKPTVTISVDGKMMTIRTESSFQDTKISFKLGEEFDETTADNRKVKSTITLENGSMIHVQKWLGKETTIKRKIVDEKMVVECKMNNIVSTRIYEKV
# [12] = target: T6, Fatty acid-binding protein, liver (Homo sapiens) (UniProt P07148); test: Displacement of 1,8-ANS from His6-tagged FABP1 (unknown origin) expressed in Escherichia coli BL21(DE3) cells at 25 uM by fluorescence assay relative to control
# T6 sequence (whole entry): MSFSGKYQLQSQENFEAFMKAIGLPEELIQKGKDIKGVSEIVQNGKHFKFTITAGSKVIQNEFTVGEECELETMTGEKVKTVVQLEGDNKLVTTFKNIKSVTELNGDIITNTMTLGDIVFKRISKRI
# [13] = target: T1, Fatty acid-binding protein, adipocyte; test: Displacement of 1,8-ANS from His6-tagged FABP4 (unknown origin) expressed in Escherichia coli BL21(DE3) cells at 25 uM by fluorescence assay relative to control
# Target sequence in this assay (P15090 2-132 limits assumed): as the sequence (P15090 2-132 limits assumed) above
# [14] = target: T3, Fatty acid-binding protein, adipocyte (Mus musculus); test: Inhibition of FABP4 in mouse RAW264.7 cells assessed as inhibition of LPS-induced IL-6 expression after 24 hrs by qPCR method; format: cell-based
# [15] = target: T4, Fatty acid-binding protein, heart; settings: 50 uM
# Target sequence in this assay (P05413 2-133 limits assumed): as the sequence (P05413 2-133 limits assumed) above
# Description: Binding affinity to His6-tagged FABP3 (unknown origin) expressed in Escherichia coli BL21(DE3) cells assessed as change in melting temperature at 50 uM after 30 mins by SYPRO orange dye based thermal stability shift assay
# [16] = target: Fatty acid-binding protein 5 (Homo sapiens) (UniProt Q01469); test: Displacement of 1,8-ANS from His6-tagged FABP5 (unknown origin) expressed in Escherichia coli BL21(DE3) cells at 25 uM by fluorescence assay relative to control
# Homo sapiens [17] = species on record: Homo sapiens; test: Displacement of 1,8-ANS from His6-tagged FABP4 (unknown origin) R106A mutant expressed in Escherichia coli BL21(DE3) cells at 25 uM by fluorescence assay relative to control
# [18] = target: T4, Fatty acid-binding protein, heart; test: Displacement of 1,8-ANS from His6-tagged FABP3 (unknown origin) expressed in Escherichia coli BL21(DE3) cells by fluorescence assay; settings: read-out: Ki(app)
# Target sequence in this assay (P05413 whole entry): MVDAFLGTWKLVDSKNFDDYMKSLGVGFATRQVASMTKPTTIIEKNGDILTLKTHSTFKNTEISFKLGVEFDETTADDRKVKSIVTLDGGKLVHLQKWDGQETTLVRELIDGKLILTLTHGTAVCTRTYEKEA
# Chain of Fatty acid-binding protein, brain (Homo sapiens) (O15540 2-132 limits assumed): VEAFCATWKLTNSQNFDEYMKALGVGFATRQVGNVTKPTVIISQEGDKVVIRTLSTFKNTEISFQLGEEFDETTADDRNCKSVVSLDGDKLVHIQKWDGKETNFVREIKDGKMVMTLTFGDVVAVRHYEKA
# Chain of Fatty acid-binding protein 5 (Homo sapiens) (Q01469 whole entry): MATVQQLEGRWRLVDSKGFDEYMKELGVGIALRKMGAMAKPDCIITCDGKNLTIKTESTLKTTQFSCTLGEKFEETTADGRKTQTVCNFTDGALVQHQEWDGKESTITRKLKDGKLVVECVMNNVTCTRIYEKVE
# Chain of Myelin P2 protein (Homo sapiens) (P02689 whole entry, looked up): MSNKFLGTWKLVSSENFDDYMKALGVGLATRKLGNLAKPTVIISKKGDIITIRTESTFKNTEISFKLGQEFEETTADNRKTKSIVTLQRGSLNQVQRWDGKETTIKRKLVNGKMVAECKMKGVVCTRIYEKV
compound,measurement,setting,value
O=C(O)C1C2CC=CC2c2cc(Br)cc3c2N1CC1CC=CC31 (stereo not drawn),ΔTm,[1],8.5 °C
same,inhibition,[2],34.1%
same,inhibition,[3],Dose-dependent effect
same,inhibition,[4],63.1%
same,inhibition,[5],58.5%
same,Kd,[6],2650 nM
same,inhibition,Homo sapiens [7],54.7%
same,inhibition,[8],Dose-dependent effect
same,inhibition,[9],68.4%
same,Ki,[10],290 nM
same,inhibition,[11],64%
same,inhibition,[12],95.5%
same,inhibition,[13],95.1%
same,inhibition,[14],Dose-dependent effect
same,ΔTm,[15],4 °C
same,inhibition,[16],77.7%
same,inhibition,Homo sapiens [17],27%
same,Ki,[18],1300 nM
